# Assay results from US10588315B2, “Fungicidal compositions” (Syngenta Participations AG, priority 2012, dated 2020).
# Where “and” joins values, the source holds several entries; their conditions need not be identical. Equal values may be shown once. Read-outs that look alike come from different tables or passages of the source.
# Experiments:
# Format in all cases: cell-based
# [1] = system: Alternaria solani; experiment: Alternaria solani / liquid culture; conditions: for inhibition at 0.0031 ppm: 1.001 0.0031 ppm
# Method: (§1) Mycelia fragments or conidia suspensions of a fungus, prepared either freshly from liquid cultures of the fungus or from cryogenic storage, were directly mixed into nutrient broth. DMSO solutions of the test compound (max. 10 mg/ml) was diluted with 0.025% Tween20 by factor 50 and 10 μl of this solution was pipetted into a microtiter plate (96-well format). The nutrient broth containing the fungal spores/mycelia fragments was then added to give an end concentration of the tested compound. The test plates were incubated in the dark at 24° C. and 96% rh. The inhibition of fungal growth was determined photometrically and visually after 2-4 days, depending on the pathosystem, and percent antifungal activity relative to the untreated check was calculated.
# (§2) Conidia of the fungus from cryogenic storage were directly mixed into nutrient broth (PDB potato dextrose broth). After placing a (DMSO) solution of test compound into a microtiter plate (96-well format), the nutrient broth containing the fungal spores was added.
# [2] = system: Botryotinia fuckeliana (Botrytis cinerea); experiment: Botryotinia fuckeliana (Botrytis cinerea) / liquid culture
# Method: as §1, with “The nutrient broth containing the fungal spores/mycelia fragments was then added to give an end concentration of the tested compound.” left out
# Conidia of the fungus from cryogenic storage were directly mixed into nutrient broth (Vogels broth). After placing a (DMSO) solution of test compound into a microtiter plate (96-well format), the nutrient broth containing the fungal spores was added.
# [3] = system: Fusarium culmorum; experiment: Fusarium culmorum / liquid culture
# Method: as §1, with “The nutrient broth containing the fungal spores/mycelia fragments was then added to give an end concentration of the tested compound.” left out
# as §2
# [4] = system: Monographella nivalis (Microdochium nivale); experiment: Monographella nivalis (Microdochium nivale) / liquid culture; conditions: for inhibition at 0.025 ppm: 1.001 0.0250 ppm; for inhibition at 0.05 ppm: 1.001 0.0500 ppm
# Method: as §1, §2
# [5] = system: Mycosphaerella graminicola (Septoria tritici); experiment: Mycosphaerella graminicola (Septoria tritici) / liquid culture; conditions: Zymoseptoria tritici, read-out: observed % activity; for inhibition at 0.0031 ppm: 1.001 0.0031 ppm; for inhibition at 0.0016 ppm: 1.001 0.0016 ppm; for inhibition at 0.0008 ppm: 1.001 0.0008 ppm
# Method: as §1, §2
# [6] = system: Thanatephorus cucumeris (Rhizoctonia solani); experiment: Thanatephorus cucumeris (Rhizoctonia solani) / liquid culture; conditions: for inhibition at 0.1 ppm: 1.001 0.1000 ppm; for inhibition at 0.05 ppm: 1.001 0.0500 ppm
# Method: as §1
# Mycelia fragments of a newly grown liquid culture of the fungus were directly mixed into nutrient broth (PDB potato dextrose broth). After placing a (DMSO) solution of the test compounds into a microtiter plate (96-well format), the nutrient broth containing the fungal material was added.
# [7] = Monographella nivalis, B1.3, read-out: observed % activity
# [8] = Monographella nivalis, B2.3, read-out: observed % activity
# [9] = Monographella nivalis, B5.4, read-out: observed % activity
# [10] = Thanatephorus cucumeris, B5.5, read-out: observed % activity
smiles,measurement,setting,value
"CON(C(=O)c1cn(C)nc1C(F)F)C(C)Cc1c(Cl)cc(Cl)cc1Cl (centres unmarked) [Compound 1.001, 3-(difluoromethyl)-N-methoxy-1-methyl-N-[1-methyl-2-(2,4,6-trichlorophenyl)ethyl]pyrazole-4-carboxamide]",observed % activity,[1]; 1.001 0.0004 ppm,11% and 10%
same,observed % activity,[1]; 1.001 0.0008 ppm,24%
same,observed % activity,[1]; 1.001 0.0016 ppm,40% and 46%
same,inhibition at 0.0004 ppm,"[1]; Alternaria solani, 1.001 0.0004 ppm, read-out: observed % activity",9%
same,inhibition at 0.0063 ppm,"[1]; Alternaria solani, 1.001 0.0063 ppm, read-out: observed % activity",75%
same,inhibition at 0.0008 ppm,"[1]; Alternaria solani, B1.2, 1.001 0.0008 ppm, read-out: observed % activity",4%
same,inhibition at 0.0016 ppm,"[1]; Alternaria solani, B1.2, 1.001 0.0016 ppm, read-out: observed % activity",32%
same,inhibition at 0.0031 ppm,"[1]; Alternaria solani, B1.2, read-out: observed % activity",64%
same,inhibition at 0.0016 ppm,"[1]; Alternaria solani, B2.2, 1.001 0.0016 ppm, read-out: observed % activity",39%
same,inhibition at 0.0016 ppm,"[1]; Alternaria solani, B3.2, 1.001 0.0016 ppm, read-out: observed % activity",45%
same,inhibition at 0.0031 ppm,"[1]; Alternaria solani, B3.2, read-out: observed % activity",66%
same,inhibition at 0.0008 ppm,"[1]; Alternaria solani, B4.2, 1.001 0.0008 ppm, read-out: observed % activity",29%
same,inhibition at 0.0016 ppm,"[1]; Alternaria solani, B4.2, 1.001 0.0016 ppm, read-out: observed % activity",47%
same,inhibition at 0.0031 ppm,"[1]; Alternaria solani, B4.2, read-out: observed % activity",73%
same,inhibition at 0.0008 ppm,"[1]; Alternaria solani, B5.2, 1.001 0.0008 ppm, read-out: observed % activity",3%
same,inhibition at 0.0016 ppm,"[1]; Alternaria solani, B5.2, 1.001 0.0016 ppm, read-out: observed % activity",36%
same,inhibition at 0.0031 ppm,"[1]; Alternaria solani, B5.2, read-out: observed % activity",75%
same,inhibition at 0.0016 ppm,"[1]; Alternaria solani, B6.2, 1.001 0.0016 ppm, read-out: observed % activity",35%
same,inhibition at 0.0031 ppm,"[1]; Alternaria solani, B6.2, read-out: observed % activity",71%
same,inhibition at 0.0016 ppm,"[1]; Alternaria solani, B9.2, 1.001 0.0016 ppm, read-out: observed % activity",37%
same,inhibition at 0.0031 ppm,"[1]; Alternaria solani, B9.2, read-out: observed % activity",67%
same,observed % activity,[2]; 1.001 0.0031 ppm,76%
same,observed % activity,[2]; 1.001 0.0063 ppm,69% and 63% and 85% and 64% and 88% and 74% and 87%
same,observed % activity,[2]; 1.001 0.0125 ppm,84% and 88%
same,inhibition at 0.0016 ppm,"[2]; Botrytis cinerea, 1.001 0.0016 ppm (Table B55), read-out: observed % activity",38%
same,inhibition at 0.0031 ppm,"[2]; Botrytis cinerea, 1.001 0.0031 ppm (Table B54), read-out: observed % activity",75%
same,inhibition at 0.0031 ppm,"[2]; Botrytis cinerea, 1.001 0.0031 ppm (Table B55), read-out: observed % activity",53%
same,inhibition at 0.0063 ppm,"[2]; Botrytis cinerea, 1.001 0.0063 ppm (Table B54), read-out: observed % activity",89%
same,inhibition at 0.0063 ppm,"[2]; Botrytis cinerea, 1.001 0.0063 ppm (Table B55), read-out: observed % activity",66%
same,inhibition at 0.0125 ppm,"[2]; Botrytis cinerea, 1.001 0.0125 ppm, read-out: observed % activity",83%
same,observed % activity,[3]; 1.001 0.0125 ppm,11% and 16% and 7% and 10% and 6%
same,observed % activity,[3]; 1.001 0.0250 ppm,24% and 28% and 34%
same,observed % activity,[3]; 1.001 0.0500 ppm,46% and 54%
same,observed % activity,[3]; 1.001 0.1000 ppm,50% and 56% and 52% and 57%
same,inhibition at 0.0063 ppm,"[3]; Fusarium culmorum, 1.001 0.0063 ppm, read-out: observed % activity",9%
same,inhibition at 0.05 ppm,"[3]; Fusarium culmorum, 1.001 0.0500 ppm (Table B54), read-out: observed % activity",51%
same,inhibition at 0.05 ppm,"[3]; Fusarium culmorum, 1.001 0.0500 ppm, read-out: observed % activity",49%
same,inhibition at 0.1 ppm,"[3]; Fusarium culmorum, 1.001 0.1000 ppm (Table B54), read-out: observed % activity",55%
same,inhibition at 0.1 ppm,"[3]; Fusarium culmorum, 1.001 0.1000 ppm, read-out: observed % activity",58%
same,inhibition at 0.2 ppm,"[3]; Fusarium culmorum, 1.001 0.2000 ppm (Table B54), read-out: observed % activity",60%
same,inhibition at 0.2 ppm,"[3]; Fusarium culmorum, 1.001 0.2000 ppm, read-out: observed % activity",60%
same,inhibition at 0.025 ppm,"[3]; Fusarium culmorum, B3.3, 1.001 0.0250 ppm, read-out: observed % activity",19%
same,inhibition at 0.05 ppm,"[3]; Fusarium culmorum, B3.3, 1.001 0.0500 ppm, read-out: observed % activity",48%
same,inhibition at 0.1 ppm,"[3]; Fusarium culmorum, B3.3, 1.001 0.1000 ppm, read-out: observed % activity",55%
same,inhibition at 0.2 ppm,"[3]; Fusarium culmorum, B3.3, 1.001 0.2000 ppm, read-out: observed % activity",59%
same,inhibition at 0.025 ppm,"[3]; Fusarium culmorum, B5.3, 1.001 0.0250 ppm, read-out: observed % activity",9%
same,inhibition at 0.05 ppm,"[3]; Fusarium culmorum, B5.3, 1.001 0.0500 ppm, read-out: observed % activity",39%
same,observed % activity,[4]; 1.001 0.0016 ppm,4%
same,observed % activity,[4]; 1.001 0.0031 ppm,10% and 6%
same,observed % activity,[4]; 1.001 0.0125 ppm,4%
same,observed % activity,[4]; 1.001 0.1000 ppm,61%
same,observed % activity,[4]; 1.001 0.2000 ppm,90% and 87% and 79%
same,inhibition at 0.004 ppm,"[4]; Monographella nivalis, 1.001 0.004 ppm, read-out: observed % activity",0%
same,inhibition at 0.1 ppm,"[4]; Monographella nivalis, 1.001 0.1000 ppm (Table B54), read-out: observed % activity",22%
same,inhibition at 0.1 ppm,"[4]; Monographella nivalis, 1.001 0.1000 ppm (Table B55), read-out: observed % activity",19%
same,inhibition at 0.2 ppm,"[4]; Monographella nivalis, 1.001 0.2000 ppm, read-out: observed % activity",85%
same,inhibition at 0.0125 ppm,"[4]; Monographella nivalis, B1.3, 1.001 0.0125 ppm, read-out: observed % activity",0%
same,inhibition at 0.025 ppm,[4]; [7],5%
same,inhibition at 0.05 ppm,[4]; [7],45%
same,inhibition at 0.2 ppm,"[4]; Monographella nivalis, B1.3, 1.001 0.2000 ppm, read-out: observed % activity",78%
same,inhibition at 0.025 ppm,[4]; [8],0%
same,inhibition at 0.05 ppm,[4]; [8],26%
same,inhibition at 0.0008 ppm,"[4]; Monographella nivalis, B3.4, 1.001 0.0008 ppm, read-out: observed % activity",1%
same,inhibition at 0.05 ppm,"[4]; Monographella nivalis, B4.3, read-out: observed % activity",15%
same,inhibition at 0.1 ppm,"[4]; Monographella nivalis, B4.3, 1.001 0.1000 ppm, read-out: observed % activity",64%
same,inhibition at 0.025 ppm,[4]; [9],2%
same,inhibition at 0.05 ppm,[4]; [9],9%
same,inhibition at 0.1 ppm,"[4]; Monographella nivalis, B5.4, 1.001 0.1000 ppm, read-out: observed % activity",60%
same,inhibition at 0.0016 ppm,"[4]; Monographella nivalis, B6.3, 1.001 0.0016 ppm, read-out: observed % activity",0%
same,inhibition at 0.0031 ppm,"[4]; Monographella nivalis, B6.3, 1.001 0.0031 ppm, read-out: observed % activity",3%
same,inhibition at 0.0004 ppm,[5]; 1.001 0.0004 ppm,9%
same,inhibition at 0.0031 ppm,[5],88%
same,inhibition at 0.0016 ppm,[5]; B1.5,52%
same,inhibition at 0.0016 ppm,[5]; B3.5,42%
same,inhibition at 0.0031 ppm,[5]; B3.5,83%
same,inhibition at 0.0008 ppm,[5]; B5.6,27%
same,inhibition at 0.0016 ppm,[5]; B5.6,45%
same,inhibition at 0.0031 ppm,[5]; B5.6,82%
same,inhibition at 0.0008 ppm,[5]; B6.4,11%
same,inhibition at 0.0016 ppm,[5]; B6.4,53%
same,inhibition at 0.0031 ppm,[5]; B6.4,89%
same,observed % activity,[6]; 1.001 0.0250 ppm,8%
same,inhibition at 0.0031 ppm,"[6]; Thanatephorus cucumeris, 1.001 0.0031 ppm, read-out: observed % activity",5%
same,inhibition at 0.0063 ppm,"[6]; Thanatephorus cucumeris, 1.001 0.0063 ppm, read-out: observed % activity",0%
same,inhibition at 0.0125 ppm,"[6]; Thanatephorus cucumeris, B1.4, 1.001 0.0125 ppm, read-out: observed % activity",0%
same,inhibition at 0.025 ppm,"[6]; Thanatephorus cucumeris, B1.4, 1.001 0.0250 ppm, read-out: observed % activity",6%
same,inhibition at 0.1 ppm,"[6]; Thanatephorus cucumeris, B1.4, read-out: observed % activity",0%
same,inhibition at 0.025 ppm,"[6]; Thanatephorus cucumeris, B5.5, 1.001 0.0250 ppm, read-out: observed % activity",13%
same,inhibition at 0.05 ppm,[6]; [10],1%
same,inhibition at 0.1 ppm,[6]; [10],17%
same,inhibition at 0.05 ppm,"[6]; Thanatephorus cucumeris, B9.3, read-out: observed % activity",0%
same,inhibition at 0.2 ppm,"[6]; Thanatephorus cucumeris, B9.3, 1.001 0.2000 ppm, read-out: observed % activity",6%
